Test results: patent US4868195A, “Novel enolamides, pharmaceutical compositions and methods of use thereof for activity as modulators of the arachidonic acid cascade” (Warner-Lambert Company, priority 1988, dated 1989)
“And” between values parts separate entries of the source, which are not always exact repeats. Equal values may be shown once.

The compounds below were run against T1, leukotriene receptor (guinea pig lung membranes) (Cavia porcellus, UniProt Q2NNR5) (assay: Binding of ^3 H-Leukotriene D4 to Guinea Pig Lung Membranes (RBL)). Conditions: 0.2 nM ^3 H-LTD4, 60 min, 25° C.; read-out: Concentration (M) for 50.0 % Inhibition, IC (RBL).
T1 construct: 20 mg original tissue wet weight of guinea pig lung; tissue Kuiper Rabbit Farm, Gary, IN (animals); host or cells: guinea pig lung, crude membranes
T1 sequence (Q2NNR5 1-340): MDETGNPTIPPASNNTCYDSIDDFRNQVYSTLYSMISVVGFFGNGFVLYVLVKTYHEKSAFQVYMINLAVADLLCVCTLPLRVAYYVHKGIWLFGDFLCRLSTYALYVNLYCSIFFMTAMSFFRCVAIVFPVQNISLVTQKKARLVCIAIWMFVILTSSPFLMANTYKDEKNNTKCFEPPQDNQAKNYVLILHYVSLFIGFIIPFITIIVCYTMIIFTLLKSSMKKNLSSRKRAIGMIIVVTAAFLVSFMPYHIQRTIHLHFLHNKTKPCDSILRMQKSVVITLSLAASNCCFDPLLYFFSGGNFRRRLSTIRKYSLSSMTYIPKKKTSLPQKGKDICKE
Method: Additionally, the activity, of the compounds having the Formula I of the present invention is determined by the well known leukotriene receptor binding assay that is described by R. F. Bruns, W. J. Thomsen and T. A. Pugsley in Life Sciences, 33, 645 (1983) or the Herxheimer in vivo antiallergy test described in H. Herxheimer, J. Physiol. (London), Vol. 177, p. 251 (1952).
Binding of ^3 H-Leukotriene D4 to Guinea Pig Lung Membranes (RBL)
[14,15-^3 H]leukotriene D4 (^3 H-LTD4) (25 Ci/mmol and 40 Ci/mmol) is purchased from New England Nuclear. Unlabeled LTC4 is a gift of Ono Pharmaceuticals (Japan). LTC4, LTD4, and LTE4 are purchased as methyl esters from Paesel GmbH (Frankfurt, W. Germany). Concentrations of the Paesel leukotrienes are calculated from their absorbance at 280 nm. Leukotriene esters are saponified overnight under N2 in 3.3% potassium carbonate at room temperature. Tritiated leukotrienes are stored as received from New England Nuclear at -20° C. Ono LTC4 (5 μg/ml) is stored at -60° C. in phosphate buffer pH 6.8. Saponified Paesel leukotrienes are stored at -60° C. in 3.3% potassium carbonate (pH 9.0-9.5). Aliquots of leukotrienes are taken from stock solutions immediately after thawing, after which the stock solutions are immediately refrozen. 2-Amino-2-(hydroxymethyl)-1,3-propanediol (Tris) is Sigma pH 7.7 pre-set crystals, and dimethylsulfoxide is Aldrich Gold Label.
Preparation of crude lung membranes
Two pairs of lungs (1.3 g) from freshly sacrificed 300 g male guinea pigs (older animals gave substantially lower binding) from Kuiper Rabbit Farm, Gary, IN are disrupted with a Polytron PT 10 (setting 4) for 30 seconds in 20 ml ice-cold 50 mM Tris adjusted with HCl to pH 7.7 at 25° C. (Tris buffer), filtered through a single layer of gauze to remove connective tissue, and centrifuged at 50,000 xg for ten min. The pellet is resuspended by homogenization with a Polytron in 20 ml Tris buffer, centrifuged at 50,000 xg for ten min., resuspended, incubated at 37° C. for 30 minutes, and centrifuged again. The final pellet is resuspended in Tris buffer and either used fresh or stored at -70° C.
All incubations are in triplicate for 60 minutes at 25° C. in 12×75 mm polystyrene tubes containing 1 ml Tris buffer with 20 mg original tissue wet weight of guinea pig lung nmembranes, 0.2 nM ^3 H-LTD4 (6,000-11,000 cpm), 10 mM MgCl2, and 1% dimethylsulfoxide Leukotrienes are diluted in Tris buffer. All other test compounds dissolved at 10 mM in dimethylsulfoxide on the same day as the experiment, and diluted in dimethylsulfoxide to 100× the final incubation concentration. Control incubations receive an equal volume (10 μl) of dimethylsulfoxide; the resulting concentration of dimethylsulfoxide had no effect on binding. ^3 H-LTD4 is diluted to 2 nM in Tris buffer. The membrane suspension (20 mg/0.89 ml) contains sufficient MgCl2 to give 10 mM final concentration in the incubation. […] All additions are performed at 0° C. Immediately after the last addition, the incubation is initiated by agitating the rack of tubes on a vortex mixer and warming to 25° C. in a water bath. Tubes are vortexed at least once more during the incubation to ensure that the membranes remained suspended. Incubations are terminated after 60 minutes by filtering under reduced pressure through 25 mm Whatman GF/B filters followed by rapid washing three times with 4 ml of ice-cold Tris buffer. Filters are added to scintillation vials with 8 ml Formula 947 (New England Nuclear), left overnight, shaken, and the radioactivity counted in a scintillation counter (efficiency 40%). Nonspecific binding, defined as binding of ^3 H-LTD4 in the presence of 100 nM LTC4, is 300-500 cpm for all lots of ^3 H-LTD4. Binding to the filters in the absence of tissue is about 100 cpm, and is not affected by unlabeled LTC4. Specific binding, defined as total binding minus nonspecific binding, varied considerably from lot to lot of ^3 H-LTD4. […]

Row | IC50 | Structure (SMILES)
1 | 5e-05 M and 3.56e-05 M | COc1cccc(CCc2ccc(NC(=O)C3=C(O)c4ccccc4S(=O)(=O)C3)cc2)c1OC [Example 28, N-[4-[2-(2,3-Dimethoxyphenyl)ethyl]phenyl]-4-hydroxy-2H-1-benzothiopyran-3-carboxamide, 1,1-dioxide]
2 | 3.92e-05 M | O=C(Nc1ccc(CCc2cccc(O)c2O)cc1)C1CS(=O)(=O)c2ccccc2C1=O (centres unmarked) [Example 29, N-[4-[2-(2,3-Dihydroxyphenyl)ethyl]phenyl]-3,4-dihydro-4-oxo-2H-1-benzothiopyran-3-carboxamide, 1,1-dioxide]
3 | 2.26e-05 M | COc1ccc(CCc2ccc(NC(=O)C3=C(O)c4ccccc4S(=O)(=O)C3)cc2)c(OC)c1 [Example 30, N-[4-[2-(2,4-Dimethoxyphenyl)ethyl]phenyl]-4-hydroxy-2H-1-benzothiopyran-3-carboxamide, 1,1-dioxide]
4 | 5.2e-05 M | O=C(Nc1ccc(CCc2ccc(O)cc2O)cc1)C1=C(O)c2ccccc2S(=O)(=O)C1 [Example 31, N-[4-[2-(2,4-Dihydroxyphenyl)ethyl]phenyl]-4-hydroxy-2H-1-benzothiopyran-3-carboxamide, 1,1-dioxide]
5 | 2.35e-05 M | COc1ccc(OC)c(CCc2ccc(NC(=O)C3=C(O)c4ccccc4S(=O)(=O)C3)cc2)c1 [Example 32, N-[4-[2-(2,5-Dimethoxyphenyl)ethyl]phenyl]-4-hydroxy-2H-1-benzothiopyran-3-carboxamide, 1,1-dioxide]
6 | 1.58e-05 M | COc1cc(CCc2ccc(NC(=O)C3=C(O)c4ccccc4S(=O)(=O)C3)cc2)cc(OC)c1 [Example 34, N-[4-[2-(3,5-Dimethoxyphenyl)ethyl]phenyl]-4-hydroxy-2H-1-benzothiopyran-3-carboxamide, 1,1-dioxide]
7 | 4.23e-05 M | COc1cc(CCc2ccc(NC(=O)C3=C(O)c4ccccc4S(=O)(=O)C3)cc2)cc(OC)c1OC [Example 35]
8 | 1e-05 M and 5.95e-06 M and 4.98e-06 M | O=C(Nc1ccc(CCc2cccc(C(F)(F)F)c2)cc1)C1=C(O)c2ccccc2S(=O)(=O)C1 [Example 62, N-[4-[2-(3-Trifluoromethylphenyl)ethyl]phenyl]-4-hydroxy-2H-1-benzothiopyran-3-carboxamide, 1,1-dioxide]
9 | 4.42e-06 M and 3.11e-06 M | O=C(Nc1ccc(CCc2cc(C(F)(F)F)cc(C(F)(F)F)c2)cc1)C1=C(O)c2ccccc2S(=O)(=O)C1 [Example 63, N-[4-[2-[3,5-bis-Trifluoromethyl(phenyl)]ethyl]phenyl]-4-hydroxy-2H-1-benzothiopyran-3-carboxamide, 1,1-dioxide]
10 | 3.15e-05 M | Nc1ccc(C=Cc2ccc(NC(=O)C3CS(=O)(=O)c4ccccc4C3=O)cc2)cc1 (centres unmarked) [Example 66, 2H-1-Benzothiopyran-3-carboxamide, N-[4-[2-(4-aminophenyl)ethenyl]phenyl]-3,4-dihydro-4-oxo-, 1,1-dioxide]
11 | 4.99e-06 M | O=C(Nc1ccc(CCc2cccc(Cl)c2)cc1)C1=C(O)c2ccccc2S(=O)(=O)C1 [Example 68, 2H-1-Benzothiopyran-3-carboxamide, N-[4-[2-(3-chlorophenyl)ethyl]phenyl]-4-hydroxy-, 1,1-dioxide]
12 | 2.04e-05 M | O=C(Nc1ccc(CCc2ccc(Cl)c(Cl)c2)cc1)C(=O)C1=C(O)c2ccccc2S(=O)(=O)C1 [Example 69, 2H-1-Benzothiopyran-3-acetamide, N-[4-[2-(3,4-dichlorophenyl)ethyl]phenyl]-4-hydroxy-α-oxo-, 1,1-dioxide]
13 | 5.58e-06 M | O=C(Nc1ccc(CCc2ccc(Oc3ccccc3)cc2)cc1)C1=C(O)c2ccccc2S(=O)(=O)C1 [Example 75, 2H-1-Benzothiopyran-3-carboxamide, 4-hydroxy-N-[4-[2-(4-phenoxyphenyl)ethyl]phenyl]-, 1,1-dioxide]
14 | 5.96e-06 M | CC(C)(C)c1cc(CCc2ccc(NC(=O)C3=C(O)c4ccccc4S(=O)(=O)C3)cc2)cc(C(C)(C)C)c1O [Example 77, 2H-1-Benzothiopyran-3-carboxamide, N-[4-[2-[3,5-bis(1,1-dimethylethyl)-4-hydroxyphenyl]ethyl]phenyl]-4-hydroxy-, 1,1-dioxide]
15 | 4.4e-06 M | COc1ccc(CCc2ccc(NC(=O)C(=O)c3sc4ccccc4c3O)cc2)cc1OC [Example 131, N-[4-[2-(3,4-Dimethoxyphenyl)ethyl]phenyl]-3-hydroxy-α-oxo-benzo[b]thiophene-2-acetamide]
16 | 5e-06 M and 6.43e-06 M and 3.28e-06 M | O=C(Nc1ccc(CCc2ccc(Cl)c(Cl)c2)cc1)c1sc2ccccc2c1O [Example 144]
17 | 0.0001 M | O=C(Nc1ccc(CCc2cc(C(F)(F)F)cc(C(F)(F)F)c2)cc1)c1sc2ccccc2c1O [Example 148, Benzo[b]thiophene-2-carboxamide, N-[4-[2-[3,5-bis(trifluoromethyl)phenyl]ethyl]phenyl]-3-hydroxy]
